Measured values taken from PMC9503112, “Synthesis, Molecular Docking, In Vitro and In Vivo Studies of Novel Dimorpholinoquinazoline-Based Potential Inhibitors of PI3K/Akt/mTOR Pathway” (International Journal of Molecular Sciences, 2022).
“And” between values parts separate entries of the source, which are not always exact repeats. Equal values may be shown once.

How the values were obtained:
[1] = tested on: PI3K/Akt/mTOR signaling pathway in MCF7 cells; assay: Immunoblotting of PI3K/Akt/mTOR phosphorylation; assay type: cell-based, human
Protocol: MCF7 cells were seeded onto 100 mm dishes (Corning) and cultivated for 24 h. Compound 7c was added at different concentrations while the reference compound wortmannin (Selleckchem, Houston, TX, USA) was used at 500 nM. The cells were harvested after 72 h of growth with the compounds. To prepare cell extracts, MCF7 cells were twice washed in phosphate buffer and incubated for 10 min on ice in the modified lysis buffer containing 50 mM Tris-HCl, pH 7.5, 0.5% Igepal CA-630, 150 mM NaCl, 1 mM EDTA, 1 mM DTT, 1 mM PMSF, 0.1 mM sodium orthovanadate and aprotinin, leupeptin, pepstatin (1 µg/mL each). The protein content was determined by the Bradford method. Cell lysates were separated in 10% SDS-PAGE under reducing conditions, transferred to a nitrocellulose membrane (GE HealthCare, Chicago, IL, USA), and processed according to a standard protocol. To prevent nonspecific absorption, the membranes were treated with 5% nonfat milk solution in TBS buffer (20 mM Tris, 500 mM NaCl, pH 7.5) with 0.1% Tween-20 and then incubated with primary antibodies (Cell Signaling Technology, Danvers, MA, USA) overnight at 4 °C. […] Signals were detected using the ECL reagent using the ImageQuant LAS4000 system (GE HealthCare, Chicago, IL, USA).
The signals of phospho-proteins to total ones were calculated using the ImageJ program from inverted images of the bands.

MDA-MB-231 = assay: Antiproliferative activity, MTT assay; assay type: cell-based, human
Protocol: (§1) Human breast cancer MCF7, MDA-MB-231, SkBr-3 (purchased from the ATCC collection), human keratinocytes HaCaT, murine fibroblasts L929 and macrophages J774 cells (Collection of Shemyakin-Ovchinnikov Institute of Bioorganic Chemistry RAS) were cultured in standard DMEM or RPMI-1640 medium (ThermoScientific, Waltham, MA, USA) supplemented with 10% fetal bovine serum (FBS, Cytiva, Marlborough, MA, USA) at 37 °C, 5 % CO2 and 80–85% humidity (NuAir CO2 incubator). The cell growth was evaluated by MTT (3-[4,5-dimethylthiazol-2-yl]-2,5-diphenyltetrazolium bromide) test. Cells were seeded at a density of 5 × 10^3 cells per well in 96-well flat-bottomed plates (TPP). The compounds were dissolved in DMSO (AppliChem) to 10 mM before the experiments, and then the resulting solutions were diluted by the medium to the required concentrations. Solutions of the tested compounds with different concentrations in 100 μL of the medium were added and the cells were grown for 72 h. MTT (10 μL/well, 5 mg/mL) was added for the final 3 h. The formazan purple crystals were dissolved in DMSO (100 μL per well). The absorbance of solutions was measured at 540 nm with a MultiScan reader (ThermoFisher). Results were analyzed by Excel package (Microsoft). The inhibition of proliferation (inhibitory index) was calculated as [1–(ODexperiment/ODcontrol)], where OD was MTT optical density. IC50 (Table 1) was determined as the concentration giving 50% of inhibition in the comparison with it […].

fibroblasts L929 = assay: Antiproliferative activity, MTT assay; assay type: cell-based, murine; settings: Mus musculus, 72 h, standard deviations within 50%
Protocol: as §1

macrophages J774 = assay: Antiproliferative activity, MTT assay; assay type: cell-based, murine; settings: Mus musculus, 72 h, standard deviations within 50%
Protocol: as §1

[2] = target: T1, recombinant PI3K (p110α/p85α) (Homo sapiens, UniProt P42336); assay: PI3K inhibition assay (HTRF); assay type: biochemical; settings: FRET/HTRF detection; approximate; read-out: IC50 PI3Kα
T1 construct: purchased Millipore 14-602
T1 sequence (P42336 whole entry): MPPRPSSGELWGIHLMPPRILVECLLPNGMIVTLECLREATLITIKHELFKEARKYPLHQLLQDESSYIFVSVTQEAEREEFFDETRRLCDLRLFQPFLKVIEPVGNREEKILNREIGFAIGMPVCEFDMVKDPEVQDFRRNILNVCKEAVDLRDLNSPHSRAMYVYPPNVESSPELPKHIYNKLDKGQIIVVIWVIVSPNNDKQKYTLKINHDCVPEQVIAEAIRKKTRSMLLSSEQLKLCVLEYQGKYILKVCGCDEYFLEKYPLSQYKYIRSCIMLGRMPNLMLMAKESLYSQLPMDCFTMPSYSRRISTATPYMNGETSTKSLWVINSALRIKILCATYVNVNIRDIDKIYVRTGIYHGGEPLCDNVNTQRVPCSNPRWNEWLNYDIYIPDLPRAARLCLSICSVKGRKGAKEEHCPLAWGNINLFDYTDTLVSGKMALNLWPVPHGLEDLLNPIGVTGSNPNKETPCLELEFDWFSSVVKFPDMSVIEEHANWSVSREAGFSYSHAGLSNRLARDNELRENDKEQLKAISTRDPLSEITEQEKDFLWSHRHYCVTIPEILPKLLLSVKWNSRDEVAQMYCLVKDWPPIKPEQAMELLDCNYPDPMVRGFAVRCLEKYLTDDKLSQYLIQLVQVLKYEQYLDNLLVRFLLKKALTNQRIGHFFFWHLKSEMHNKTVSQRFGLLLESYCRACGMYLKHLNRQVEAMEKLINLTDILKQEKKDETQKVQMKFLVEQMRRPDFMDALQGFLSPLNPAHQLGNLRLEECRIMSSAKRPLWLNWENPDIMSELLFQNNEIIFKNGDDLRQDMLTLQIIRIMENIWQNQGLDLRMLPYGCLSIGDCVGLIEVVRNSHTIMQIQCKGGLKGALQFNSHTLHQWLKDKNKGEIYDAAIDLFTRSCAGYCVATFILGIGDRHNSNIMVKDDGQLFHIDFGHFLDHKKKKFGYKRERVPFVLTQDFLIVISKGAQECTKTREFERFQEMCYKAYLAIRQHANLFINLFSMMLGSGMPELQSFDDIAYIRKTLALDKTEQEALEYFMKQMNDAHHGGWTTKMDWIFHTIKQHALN
T1 sequence (P27986 whole entry partner): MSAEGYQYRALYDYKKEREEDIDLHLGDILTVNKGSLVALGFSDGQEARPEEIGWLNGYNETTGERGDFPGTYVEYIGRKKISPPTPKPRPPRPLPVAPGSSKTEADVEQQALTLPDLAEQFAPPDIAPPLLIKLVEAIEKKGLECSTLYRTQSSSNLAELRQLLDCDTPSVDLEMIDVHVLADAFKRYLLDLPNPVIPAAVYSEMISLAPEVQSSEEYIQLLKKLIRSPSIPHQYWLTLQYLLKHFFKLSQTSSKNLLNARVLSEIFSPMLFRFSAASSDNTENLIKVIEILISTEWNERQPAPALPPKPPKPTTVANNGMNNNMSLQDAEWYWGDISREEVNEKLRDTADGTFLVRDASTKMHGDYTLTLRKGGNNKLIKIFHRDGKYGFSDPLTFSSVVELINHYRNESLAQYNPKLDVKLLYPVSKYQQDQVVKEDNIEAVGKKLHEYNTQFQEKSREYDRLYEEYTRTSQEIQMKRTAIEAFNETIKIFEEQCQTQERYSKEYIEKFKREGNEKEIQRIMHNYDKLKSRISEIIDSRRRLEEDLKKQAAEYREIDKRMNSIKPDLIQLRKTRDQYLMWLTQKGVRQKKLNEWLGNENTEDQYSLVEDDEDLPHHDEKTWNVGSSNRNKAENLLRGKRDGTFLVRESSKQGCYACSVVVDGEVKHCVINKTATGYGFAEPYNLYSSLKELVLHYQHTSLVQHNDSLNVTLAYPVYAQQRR
Protocol: The PI 3-Kinase (Class I) HTRF Assay Kit (Cat# 33-016 from Millipore) was used to determine the activity of recombinant PI3K (p110α/p85α) human (Cat# 14-602 from Millipore). The kit was supplemented with ATP (Cat# A26209 from Sigma-Aldrich, St. Louis, MI, USA), DL-dithiothreitol (Cat# S-[…]-1 from Sigma-Aldrich), and Wortmannin inhibitor (Cat# 12-338 from Millipore, Burlington, MA, USA). The latter was used at 0.1 μM concentration. For measurements, a Victor ×5 plate reader (PerkinElmer, 2030, Waltham, MA, USA) was used in TRF mode with excitation at 340 nm. Fluorescence emission was recorded at 613 and 670 nm in a 384-well plate (Cat# S-CLS3658 from Sigma-Aldrich) at a time interval of 150-350 μs. The enzymatic reaction and the determination of its products were carried out according to the recommendations of the reagent kit manufacturer (Millipore) in two wells for each sample. In calculations, readings in parallel wells were averaged. The calculations were made according to the recommendations of the equipment manufacturer.

IC50 (MDA-MB-231; Homo sapiens, MDA-MB-231, MTT, 72 h, standard deviations within 50%): 1 µM
IC50 [2]: ~500 µM
Structure (SMILES): O=C(NCCc1cccnc1)Nc1ccc(-c2ccc3c(N4CCOCC4)nc(N4CCOCC4)nc3c2)cc1 [Compound 7c, 1-(4-(2,4-Dimorpholinoquinazolin-7-yl)phenyl)-3-(2-(pyridin-3-yl)ethyl)urea]
Concentration inhibiting phosphorylation of Akt, mTOR, S6K (PI3K/Akt/mTOR proteins) [1]: 125 to 250 nM and 250 to 500 nM
Toxicity for MDA-MB-231 (wild type PI3K) lower than for MCF7 (mutant PI3K) (MDA-MB-231; MDA-MB-231 versus MCF7): 5 times
IC50 (fibroblasts L929): 3 µM
IC50 (macrophages J774): 0.4 µM
